{"source": "BindingDB's records for doi:10.1016/j.jmb.2007.01.004", "about": "(Astex Therapeutics, 2007)", "molecular_target": "cAMP-dependent protein kinase catalytic subunit alpha (Bos taurus, UniProt P00517)", "assay": "PKA In Vitro Enzyme Assay", "settings": "pH 7.2; 22 °C", "description": "The recombinant alpha catalytic subunit of bovine PKA was assayed with a peptide substrate and test compound in the presence of 40 uM ATP/ [gamma-33P]ATP in 96-well plates. […] IC50 values were determined from an eight-point concentration range run in duplicate and calculated in GraphPad Prism 4.00.", "data": [{"smiles": "Cc1n[nH]c2ccc(-c3cncc(OC[C@@H](N)Cc4c[nH]c5ccccc45)c3)cc12", "note": "[5-{5-[(2S)-2-amino-3-(1H-indol-3-yl)propoxy]pyridin-3-yl}-3-methyl-1H-indazole]", "values": [{"measurement": "IC50", "value": 27, "unit": "nM"}]}]}
